According to PubChem BioAssay (NCI):
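A five-concentration, 48-hour dose response in 96-well plates underlies each endpoint, interpolated linearly between surrounding concentrations. The concentration for full growth arrest is given as TGI.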

Key:
Assay in all cases: NCI tumour cell line growth inhibition, 48 h
HOP-62 NSCLC = tested on: HOP-62 NSCLC
NCI-H226 lung = tested on: NCI-H226 lung
OVCAR-3 ovarian = tested on: OVCAR-3 ovarian
SK-MEL-5 melanoma = tested on: SK-MEL-5 melanoma
SF-539 CNS = tested on: SF-539 CNS
CCRF-CEM leukemia = tested on: CCRF-CEM leukemia
RPMI-8226 leukemia = tested on: RPMI-8226 leukemia
HT29 colon = tested on: HT29 colon
OVCAR-8 ovarian = tested on: OVCAR-8 ovarian
SW-620 colon = tested on: SW-620 colon
SNB-75 CNS = tested on: SNB-75 CNS
CAKI-1 renal = tested on: CAKI-1 renal

Compound | TGI (HOP-62 NSCLC) | TGI (NCI-H226 lung) | TGI (OVCAR-3 ovarian) | TGI (SK-MEL-5 melanoma) | TGI (SF-539 CNS) | TGI (CCRF-CEM leukemia) | TGI (RPMI-8226 leukemia) | TGI (HT29 colon) | TGI (OVCAR-8 ovarian) | TGI (SW-620 colon) | TGI (SNB-75 CNS) | TGI (CAKI-1 renal)
OC1C(O)C(O)C(O)C(O)C1O (stereo not drawn) | > 1000 µM | > 1000 µM | > 1000 µM | > 1000 µM | > 1000 µM | 144 µM | > 1000 µM | > 1000 µM | > 1000 µM | > 1000 µM | > 1000 µM | 
COC(=O)[C@@H]1c2cc3c(c(O)c2[C@@H](OC)C[C@@]1(C)O)C(=O)c1c(O)cc2c(c1C3=O)OC1O[C@@]2(C)[C@H](O)[C@@H](N(C)C)[C@@H]1O | 1.06 µM | 0.877 µM | 1.69 µM | 1.05 µM | 7.48 µM | > 150 µM | > 150 µM | 2 µM | 2.05 µM | 2.21 µM | 0.977 µM | 0.749 µM
c1ccc2c(c1)CCc1c-2n(CCN2CCCCC2)c2ccccc12 | 30.1 µM | 25.1 µM | 31.1 µM | 12.9 µM | 26.6 µM | > 100 µM | 40.3 µM | 22.8 µM | 32 µM | 50.1 µM | 49.1 µM | 52.3 µM
Oc1[nH]c2ccccc2c1N=NC1=NCCCCN1 | > 100 µM | > 100 µM | > 100 µM | > 100 µM | > 100 µM | > 100 µM | > 100 µM | > 100 µM | > 100 µM | > 100 µM | > 100 µM | > 100 µM
NC(=O)c1n[nH]n(-c2ccccc2)c1=O | > 100 µM | > 100 µM | > 100 µM | > 100 µM | > 100 µM | > 100 µM | > 100 µM | > 100 µM | > 100 µM | > 100 µM | > 100 µM | > 100 µM
Cn1c(-c2csc(-c3ccc(Cl)cc3)n2)n[nH]c1=S | 30.2 µM | 57.3 µM | 34.9 µM | > 100 µM | 46.7 µM | > 100 µM |  | > 100 µM | 47.2 µM | > 100 µM | 39.8 µM | 56.4 µM
O=S(=O)(O)CCS | > 100 µM | > 100 µM | > 100 µM | > 100 µM | > 100 µM | > 100 µM |  | > 100 µM | > 100 µM | > 100 µM | > 100 µM | > 100 µM
CCC(=O)OCc1ccc2oc(=O)c(C(=O)Oc3cncc(Cl)c3)cc2c1 | > 100 µM | > 100 µM | > 100 µM | > 100 µM | > 100 µM | 24.8 µM | > 100 µM | > 100 µM | > 100 µM | > 100 µM | > 100 µM | > 100 µM
COC(=O)C(NC(=O)CNC(=O)CSc1nnc(COc2ccc(Cl)cc2)n1-c1ccccc1)C(C)C (stereo not drawn) | 92 µM | 38.3 µM | 31.6 µM | 30 µM | 31.9 µM | > 100 µM | 46.7 µM | 35.3 µM | 40.8 µM | 38.2 µM | 37.5 µM | 28.2 µM
CC1(C)OCC2OC3([C@H](O)CCO)OC(C)(C)OC3C2O1 (stereo partly drawn) | > 100 µM | > 100 µM | > 100 µM | > 100 µM | > 100 µM | > 100 µM | > 100 µM | > 100 µM | > 100 µM | > 100 µM | > 100 µM | > 100 µM
O=[N+]([O-])c1ccc(NC2OCC(O)C(O)C2O)cc1 (stereo not drawn) | > 100 µM | > 100 µM | > 100 µM | > 100 µM | > 100 µM | > 100 µM | > 100 µM | > 100 µM | > 100 µM | > 100 µM | > 100 µM | > 100 µM
O=C(CCCCCCCCC(=O)NN1C(=O)/C(=C\c2ccc(O)c(O)c2)SC1c1c(O)ccc2ccccc12)NN1C(=O)C(=Cc2ccc(O)c(O)c2)SC1c1c(O)ccc2ccccc12 (stereo not drawn) | > 36.8 µM | > 100 µM | > 32.9 µM | 19.4 µM | 97.2 µM | 6.32 µM | 21.1 µM | > 100 µM | > 100 µM | > 100 µM | > 100 µM | > 100 µM
O=c1c2cc(Br)ccc2oc2nc3n(c(=O)c12)CCCS3 | > 100 µM | > 100 µM | > 100 µM | > 100 µM | > 100 µM | > 100 µM | > 100 µM |  | > 100 µM | > 100 µM | > 100 µM | > 100 µM
Cn1c(C(C#N)c2cc(Cl)ncn2)nc2ccccc21 (stereo not drawn) | > 100 µM | > 100 µM | > 100 µM | > 100 µM | > 100 µM |  | > 100 µM | > 100 µM | > 100 µM | > 100 µM | > 100 µM | > 100 µM
Cc1ccc(/C=C2\NC(=S)N(CN3CCOCC3)C2=O)cc1 | > 100 µM | > 100 µM | > 100 µM | > 100 µM |  | > 100 µM | > 100 µM | > 100 µM | > 100 µM | > 100 µM | > 100 µM | 
CC1=C/C(=N/N2C(=O)/C(=C/c3ccc(Cl)cc3)N=C2c2ccccc2)CC(C)(C)C1 | > 100 µM | > 100 µM |  | > 100 µM | > 100 µM |  | > 100 µM | > 100 µM | > 100 µM | > 100 µM | 93.6 µM | > 100 µM
